Data from article PMC4588393 (EBioMedicine, 2015).
Counter-ions that a name gives are not always drawn. Bridge positions count the residues as written; N and C are the ends. Square brackets hold non-standard residues; d marks the D form. Peptide text beside a SMILES is read from it. * marks the point of attachment. X1 = CC[C@H](C)CCCCC(=O)*; Dab = NCC[C@H](N)C(=O)O

Legend:
[1] = tested on: S. Typhimurium 14028; assay type: cell-based, Salmonella enterica Typhimurium
[2] = tested on: TIVAR + S. Typhimurium 14028; design: species or system BALB/c mice; settings: in vivo
[3] = tested on: TIVAR − S. Typhimurium var. 5 (04)-9639; design: species or system BALB/c mice; settings: in vivo
[4] = in vivo; cited from earlier work

CO/N=C(\C(=O)N[C@@H]1C(=O)N2C(C(=O)O)=C(CSC(=O)c3ccco3)CS[C@H]12)c1csc(N)n1 [Ceftiofur, ceftiofur]
effect of pH and media composition on efficacy of antibiotic [1]: unaffected

O=C(N[C@H](CO)[C@H](O)c1ccc([N+](=O)[O-])cc1)C(Cl)Cl [Chloramphenicol, chloramphenicol]
effect of pH and media composition on efficacy of antibiotic [1]: unaffected

O=C(O)c1cn(C2CC2)c2cc(N3CCNCC3)c(F)cc2c1=O [Ciprofloxacin, ciprofloxacin]
mouse survival post-infection [2]: at least 10 days

CC[C@H](C)CCCCC(=O)N[C@@H](CCN)C(=O)N[C@H](C(=O)N[C@@H](CCN)C(=O)N[C@H]1CCNC(=O)[C@H]([C@@H](C)O)NC(=O)[C@H](CCN)NC(=O)[C@H](CCN)NC(=O)[C@H](CC(C)C)NC(=O)[C@@H](CC(C)C)NC(=O)[C@H](CCN)NC1=O)[C@@H](C)O [Colistin sulfate, colistin sulfate] (X1-[Dab]T[Dab][Dab][Dab][dL]L[Dab][Dab]T; lactam 4-C (inferred); N-terminus assumed)
resistance linked to growth in LPM pH 5.5 medium (MIC ratio of LPM pH 5.5/pH 7.0 to MHB pH 5.5/pH 7.2) [1]: 256 fold

CC[C@H](C)CCCCC(=O)N[C@@H](CCN)C(=O)N[C@H](C(=O)N[C@@H](CCN)C(=O)N[C@H]1CCNC(=O)[C@H]([C@@H](C)O)NC(=O)[C@H](CCN)NC(=O)[C@H](CCN)NC(=O)[C@H](CC(C)C)NC(=O)[C@@H](Cc2ccccc2)NC(=O)[C@H](CCN)NC1=O)[C@@H](C)O [Polymyxin B, polymyxin B] (X1-[Dab]T[Dab][Dab][Dab][dF]L[Dab][Dab]T; lactam 4-C (inferred); N-terminus assumed)
resistance linked to growth in LPM pH 5.5 medium (MIC ratio of LPM pH 5.5/pH 7.0 to MHB pH 5.5/pH 7.2) [1]: 64 fold | mouse survival post-infection [3]: at least 10 days | time within which all treated mice died ([2]; mouse): ≤ 7 days | circulating PMB levels [4]: 0.5 to 2.5 mg/L

CN(C)[C@@H]1C(O)=C(C(N)=O)C(=O)[C@@]2(O)C(O)=C3C(=O)c4c(O)cccc4[C@@](C)(O)[C@H]3C[C@@H]12 [Tetracycline, tetracycline]
effect of pH and media composition on efficacy of antibiotic [1]: unaffected

COc1cc(Cc2cnc(N)nc2N)cc(OC)c1OC [Trimethoprim, trimethoprim]
resistance linked to growth in LPM pH 5.5 medium (MIC ratio of LPM pH 5.5/pH 7.0 to MHB pH 5.5/pH 7.2) [1]: 4 fold
